Where only a bound is given, the exact number is not on record here.

The experiment in a line: blockers of orphan receptor GPR35 – imaging, image-based, set 2, SAR follow-up (AID 2480).
With `Cc1c(C(=O)Nc2ccc3c(c2)OCCO3)sc2ncnc(N3CCC(C)CC3)c12` [N-(2,3-dihydro-1,4-benzodioxin-6-yl)-5-methyl-4-(4-methyl-1-piperidinyl)-6-thieno[2,3-d]pyrimidinecarboxamide], the half-inhibitory concentration (IC50) – broadly, the concentration needed to halve the response being measured – was 4.07 µM. In the case of `Clc1ccc(Cn2ncc3c(N4CCN(c5cccc(Cl)c5)CC4)ncnc32)cc1` [1-[(4-chlorophenyl)methyl]-4-[4-(3-chlorophenyl)piperazin-1-yl]pyrazolo[3,4-d]pyrimidine], the IC50 was > 32 µM. The compound `CC(C)(C)c1ccc(OCCC(=O)NCCc2ccc(S(N)(=O)=O)cc2)cc1` [MLS001151090] gave an IC50 of 2.23 µM. Turning to `CC(C)c1ccc(NC(=O)CSc2nc3ccsc3c(=O)n2Cc2ccc(C(=O)O)cc2)cc1` [4-[[4-oxo-2-[2-oxo-2-(4-propan-2-ylanilino)ethyl]sulfanylthieno[3,2-d]pyrimidin-3-yl]methyl]benzoic acid], half-maximal inhibition (IC50) required 1.33 µM. In the case of `CCC(Sc1nc2ccsc2c(=O)n1Cc1ccc(C(=O)O)cc1)C(=O)Nc1ccc(Cl)cc1` (stereo unspecified) [MLS-0435427.0001] it was > 32 µM; in that of `Cc1c(C(=O)Nc2ccc3c(c2)OCCO3)sc2ncnc(N3CCCCC3C)c12` (stereo unspecified) [MLS-0359029.0001], > 32 µM.
